# Laboratory results: US20090325871A1, “Role of the Mk2 Pathway in Wound Repair” (priority 2006, published 2009)
# Entries after “also recorded” stand apart in the source; their conditions may differ.
# What was measured:
# Type in all cases: cell-based, mouse
# SRE promoter [1] = assay: SRE-luciferase promoter-reporter assay in WT MEF; settings: TGFβ 1 ng/mL
# Method: (§1) For SRE promoter-reporter assays WT and MK2^−/− MEF, were transfected with the SRE.L-luciferase vector which contains two copies of SRE.L, a derivative of c-fos serum response element driving the expression of luciferase. The SRE.L vector was introduced alone in the case of WT MEF, and co-transfected with pMEpuro (a selection vector which confers resistance to puromycin to eukaryotic cells) in the case of MK2^−/− MEF. The vectors were introduced (5 μg of SRE.L, and 0.5 μg pMEpuro) into MEF using lipofectamine. Stable transfected WT MEF cell lines were obtained by selection with geneticin, and resistant colonies were isolated, expanded, and then screened for baseline luciferase activity. Since the MK2^−/− MEF were already resistant to geneticin, stable transfectants produced by co-transfection with pMEpuro were selected with puromycin, and resistant clones were isolated and expanded as above. The firefly luciferase activity was assayed using a kit from Promega (Madison, Wis.) according to the manufacturer's instructions. In brief, cells were lysed and the substrate (beetle luciferin) was added to the lysate. Next, chemiluminescence was measured using a luminometer.
# Since smα induction by several agents including TGFβ has been reported to occur through activation of serum response elements (SRE) in the smα promoter, whether this activation occurs in WT MEF was tested.
# SRE promoter [2] = assay: SRE-luciferase promoter-reporter assay in MK2−/− MEF; settings: TGFβ 1 ng/mL
# Method: as §1
# Since MK2 has been reported to phosphorylate SRF, whether the effect of MK2 suppression on smα expression is due to its effect on the SRE promoter was tested. […]
# WT MEF [3] = assay: smα-actin protein level by Western blot in WT MEF; settings: TGFβ 1 ng/mL for 24 hours
# Method: (§2) Aliquots from the cell lysates prepared as described above were assayed for protein using the Bradford protein assay and then diluted with 2× Laemmli loading buffer for SDS-PAGE. Equal amounts of protein were then loaded in each well of 4-20% Tris/glycine gels. After electrophoresis for 90 min at 125 V constant voltage, the gel was blotted onto an Immobilon-P membrane by electrophoretic transfer at 25 V constant voltage overnight. The membrane was then washed, blocked with 5% milk, and probed with antibodies against MK2 (Cell Signaling, Beverly, Mass.) smα (Sigma, St. Louis, Mo.) or pan-actin (Santa Cruz, Santa Cruz, Calif.). The immunoreactive bands were visualized using a secondary antibody conjugated to horseradish peroxidase (Pierce, Rockford, Ill.).and a chemiluminescent substrate according to the manufacturer's instructions (SuperSignal, Pierce, Rockford, Ill.). The intensity of the bands was quantified using a UnScanIt software (Orem, Utah).
# (§3) TGFβhas been implicated in the fibrotic response because of its ability to induce differentiation of fibroblasts into myofibroblasts. Whether TGFβ can induce myofibroblast differentiation in both WT MEF and MK2^−/− MEF was tested. Cells were growth arrested in serum free media for 24 hr then exposed to TGFβ (1 ng/mL).
# MK2−/− MEF [4] = assay: smα-actin protein level by Western blot in MK2−/− MEF; settings: TGFβ 1 ng/mL for 24 hours
# Method: as §2, §3
# WT MEF [5] = assay: smα mRNA level by semiquantitative RT-PCR in WT MEF; settings: TGFβ 1 ng/mL for 24 hours
# Method: (§4) Semiquantitative RT-PCR to measure mRNA in mouse MEF was used. In brief, RNA was isolated from treated or untreated MEF using the RNeasy kit (Qiagen, Valencia, Calif.) according to manufacturesr's instructions. The amount of RNA was determined spectrophotometrically, and equal amounts were used to generate cDNA by reverse transcription using the Superscript III system (Invitrogen, Carlsbad, Calif.) according to manufacturer's instructions. Next an equal volume of the cDNA was added to a master mix containing the following primers. For sma, the primers 5′-GCATCCACGAAACCACCTA-3′ and 5′-[…]-3′ were used to generate a 418 bp PCR product from mouse smooth muscle α-actin cDNA. For β-actin, the primers 5′-[…]-3′ and 5′-[…]-3′) were used to generate 348 bp product from mouseβ-actin cDNA. The primers 5′-[…]-3′ and 5′-[…]3′ were used to generate a 142 bp product from mouse procollagen type I alpha 1 cDNA. The PCR reaction was carried out as using a Bio-Rad I-cycler thermal cycler (Hercules, Calif.). […] After staining with ethidium bromide, photographs of the gels were taken, scanned, and the intensity of the bands was measured using UnScanIt software (Orem, Utah). The relative amount of smα and procollagen RNA was determined by dividing the intensity of their corresponding PCR product band by the intensity of the β-actin PCR product band.
# MK2−/− MEF [6] = assay: smα mRNA level by semiquantitative RT-PCR in MK2−/− MEF; settings: TGFβ 1 ng/mL for 24 hours
# Method: as §4
# WT MEF [7] = assay: procollagen type I α1 mRNA level by RT-PCR in WT MEF; settings: TGFβ 1 ng/mL for 24 hours
# Method: as §4
# MK2−/− MEF [8] = assay: procollagen type I α1 mRNA level by RT-PCR in MK2−/− MEF; settings: TGFβ 1 ng/mL for 24 hours
# Method: as §4
# [9] = SB-203580 1 μM, measured at 6 hours
# [10] = greatest after 6 hours, baseline by 24 hours
Compound,block of TGFβ activation of SRE-luciferase promoter (SRE promoter [1]; [9]),block of TGFβ activation of SRE-luciferase promoter (SRE promoter [2]; [9]),SRE-luciferase promoter activity (SRE promoter [1]; [10]),SRE-luciferase promoter activity (SRE promoter [2]; [10]),smα-actin protein level (WT MEF [3]),smα-actin protein level (MK2−/− MEF [4]),smα mRNA level (WT MEF [5]),smα mRNA level (MK2−/− MEF [6]),procollagen type I α1 mRNA level (WT MEF [7]),procollagen type I α1 mRNA level (MK2−/− MEF [8])
"C[S+]([O-])c1ccc(-c2nc(-c3ccncc3)c(-c3ccc(F)cc3)[nH]2)cc1 (stereo not shown) [SB-203580, reference compound]",partially blocked,completely blocked,–,–,–,–,–,–,–,–
TGFβ,–,–,SRE promoter activity increased; also recorded: caused activation,SRE promoter activity increased; also recorded: caused activation,smα-actin level increased; also recorded: produce more sma,did not respond to TGFβ by increasing smα-actin; also recorded: produce even less smα,increased; also recorded: appeared to increase,significantly reduced; also recorded: significantly decreased,did not appear to alter,did not appear to alter; also recorded: did not suppress
